Experimental data as given in US20260015311A1, “AMINO LIPID COMPOUND, PREPARATION METHOD THEREFOR, AND USE THEREOF” (SHENZHEN SHENXIN BIOTECHNOLOGY CO., LTD., priority 2022, published 2026).

What was measured:
[1] = tested on: Fluc mRNA; experiment: In vivo delivery of luciferase mRNA (Fluc mRNA) by lipid nanoparticles, living imaging; parameters: species or system BALB/c mice; conditions: after 12 hours, total fluorescence
Procedure: (§1) The amino lipid compounds of the present disclosure were mixed with DOPE, cholesterol, and PEG2000-DMG in a molar ratio of 45:10:42.5:2.5 and dissolved in absolute ethanol. By using a microinjection pump, the resultant ethanol solution and a sodium acetate solution (50 mM, pH=4.0) were mixed in a ratio of 1:3 in a microfluidic chip to prepare a crude solution of lipid nanoparticles, which were then dialyzed in 1×PBS at a controlled temperature of 4° C. for 6 h using a dialysis box (Fisher, MWCO 20,000), and filtered through a 0.22 μm microporous filter membrane before use.
(§2) The formulation method was the same as the formulation method 1, except that the molar ratio of the amino lipid compounds to DSPC, cholesterol and PEG2000-DMG was 50:10:38.5:1.5.
The lipid nanoparticles prepared according to the above formulation method 1 or 2 were used in the biological experiments below for evaluating the performances of in vivo delivery of luciferase mRNA (Fluc mRNA). For the lipid nanoparticles obtained in the formulation method 1, the mass ratio of the amino lipid compounds to the luciferase mRNA was about 10:1, and the lipid nanoparticles were administered subcutaneously; and the lipid nanoparticles obtained in the formulation method 2 were administered by tail vein and intramuscular injection.
6-week-old female BALB/c mice weighed about 20 g were selected and fed in a SPF-grade feeding room. Animal tests were conducted strictly according to the guidelines of National Health institutions and the requirements of animal ethics.
(§3) 9 mice were assigned randomly to each group and injected with the lipid nanoparticles at a dosage of 0.5 mg/kg by three administration routes, i.e., subcutaneous, intramuscular and tail vein injection (three mice for each administration route). After 12 hours, D-luciferin potassium salt (200 μL, 10 mg/mL) was injected into each mouse through the tail vein. After 10 minutes, the total fluorescence intensity of each mouse was observed on a living imaging system (IVIS-200, Xenogen) and taken photographs for record. The expression intensities of Fluc mRNA delivered by representative amino lipid compounds through the three administration routes are shown in Table 2-4. MC3 was used as a control and SM102 was used as a comparative compound.

[2] = tested on: OVA protein; experiment: In vivo delivery of ovalbumin mRNA and immunity, IgG ELISA; parameters: species or system BALB/c mice; conditions: OVA mRNA LNP, injected intramuscularly 0.5 mg/kg Day 0 and Day 7, serum Day 21, FIG. 1
Procedure: as §1, with “compounds of formula (I)” for “compounds”, “of 50:10:38.5:1.5” for “of 45:10:42.5:2.5”, “ethanol. Ovalbumin mRNA (OVA mRNA) was dissolved in a sodium acetate solution (50 mM, pH=4.0).” for “ethanol.”, “and the” for “and a”
The mass ratio of the amino lipid compounds to the ovalbumin mRNA (OVA mRNA) in the obtained lipid nanoparticles was about 10:1.
6-week-old female BALB/c mice weighed about 20 g were selected and fed in a SPF-grade feeding room. Animal tests were conducted strictly according to the guidelines of National Health institutions and the requirements of animal ethics. […]
A flat-bottomed 96-well plate (Nunc) was pre-coated with OVA protein at a concentration of 0.5 μg protein per well in a 50 mM carbonate buffer (pH 9.6) at 4° C., and allowed to stay overnight, and then blocked with 5% glycine. […] After addition of the HRP substrate, the absorbance at 450 nm was measured on an ELISA plate reader (Bio-Rad).

[3] = tested on: influenza mRNA vaccine; experiment: In vivo delivery of influenza mRNA vaccine and immunity, IgG ELISA; parameters: species or system BALB/c mice; conditions: influenza mRNA LNP, injected subcutaneously 0.5 mg/kg Day 0 and Day 7, serum Day 21, FIG. 2
[4] = tested on: liver; experiment: Targeting assay, fluorescence in liver after intramuscular injection; assay type: in vivo, mice; conditions: 15 μg mRNA per animal, 6 h after injection, dissected liver
Procedure: The lipids were mixed with DSPC, CHO-HP, M-DMG2000 (i.e. PEG2000-DMG) in a molar ratio of 50:10:38.5:1.5 and dissolved in absolute ethanol. mRNA was dissolved in a sodium acetate solution (0.2M, pH=5.0). The samples of various prescriptions were prepared at a water phase:alcohol phase=9 ml/min: 3 ml/min by using a microfluidic equipment (MPE-L2) and a chip (SN.000035). The two phases were mixed by injecting them into the microfluidic chip according to the interface requirements, and then the drug solution was loaded into a 100KD dialysis bags, immersed in a beaker containing 1 L dialysis solution and wrapped with aluminum foil, and dialyzed at 100 rpm for 1 h at room temperature, and then the dialysis solution was replaced and the dialysis continued for 1 h.
Formulation of dialysis solution: 1×PBS+8% sucrose solution: 2 packets of 1×PBS powder were taken into a beaker, dissolved with 2 L DEPC water, added with 160 g of sucrose additionally, and mixed to obtain the 1×PBS+8% sucrose solution.
The mass ratio of mRNA:Lipids in the obtained lipid nanoparticles were about 1:10.
Fluorescent protein-encoding mRNA-LNP preparations containing Compound (I-6-II), MC3 or SM102, respectively were prepared by using the formulation method of mRNA lipid nanoparticle (LNP) preparations as described above, selecting a fluorescent protein-encoding mRNA as the mRNA and the compound (I-6-II), MC3 or SM102, respectively as the lipid.
Each preparation to be tested was administered to mice by intramuscular injection, with each animal receiving 15 μg mRNA preparation sample. 6 h after sample injection, the mice were anesthetized by isoflurane inhalation, and injected intraperitoneally with 200 μL of D-Luciferin (concentration 10 mg/ml) luciferase development substrate. […] After development of living imaging of the intramuscularly injected animals, they were immediately dissected, followed by observation of the fluorescence in the liver immediately after the dissection.

[5] = Stability of lipid nanoparticles at 25° C., DLS particle size and PDI; assay type: physicochemical
Procedure: as §1
(§4) Preparation of Lipid Nanoparticles: The Formulation Method 1 was Used to Prepare LNPs for Subcutaneous Administration.
Characterization of lipid nanoparticles: The particle size and PDI of the prepared lipid nanoparticles were measured by Nano-ZSZEN 3600 (Malvern). 40 μL of the LNP solution was taken for particle size measurement with circulation for three times, 30 seconds for each circulation.
(§5) The particle size measurements were carried out on the day of preparation (week 0), and after one week (week 1), two weeks (week 2), and four weeks (week 4) of storage at 25° C., and the expression intensities of Fluc mRNA delivered by subcutaneous administration were determined on the day of preparation (week 0) and after four weeks (week 4).

[6] = tested on: Fluc mRNA; experiment: Stability of lipid nanoparticles at 25° C., subcutaneous expression of Fluc mRNA; assay type: in vivo, mice
Procedure: as §1, §3, §4, §5

[7] = tested on: Fluc mRNA; experiment: Activity of lipid nanoparticles of formulation method 2, Fluc mRNA by intramuscular administration; assay type: in vivo, BALB/c mice
Procedure: as §2, §3
Preparation of Lipid Nanoparticles: LNPs were Prepared Using the Formulation Method 2 for Intramuscular Administration.
The measurement method was the same as that of Test Example 1.

[8] = intramuscular injection, formulation method 2, 0.5 mg/kg
[9] = subcutaneous administration, formulation method 1, 0.5 mg/kg
[10] = tail vein administration, formulation method 2, 0.5 mg/kg

## CCCCCCCCCCCOC(=O)CCCCCN(CCCCCCCC(=O)OC(CCCCCCCC)CCCCCCCC)C1CC(O)C1 (stereo not drawn) [Compound 2]
[1]; [8]
  Fluorescence intensity (expression intensity of Fluc mRNA): 1.3E + 07
[1]; [9]
  Fluorescence intensity (expression intensity of Fluc mRNA): 1.9E + 08
[1]; [10]
  Fluorescence intensity (expression intensity of Fluc mRNA): 2.9E + 06
[2]
  IgG antibody titers: comparable to those of MC3 and SM102

## CCCCC/C=C\C/C=C\CCCCCCCCC(CCCCCCCC/C=C\C/C=C\CCCCC)OC(=O)CCCN(C)C [MC3, reference compound]
[1]; [8]
  Fluorescence intensity (expression intensity of Fluc mRNA): 2.7E + 07
[1]; [9]
  Fluorescence intensity (expression intensity of Fluc mRNA): 3.7E + 06
[1]; [10]
  Fluorescence intensity (expression intensity of Fluc mRNA): 2.7E + 07
[3]
  IgG antibody titers: lowest IgG antibody titers
[4]
  fluorescence intensity in liver: 1.23E+05

## CCCCCCCC/C=C\CCCCCCCC(=O)OCCCCCCCCN(CCCCCCOC(=O)C(CCCCCC)CCCCCCCC)C1CCCC(O)C1 (stereo not drawn) [Compound 10]
[1]; [9]
  Fluorescence intensity (expression intensity of Fluc mRNA): 1.1E + 07
[3]
  IgG antibody titers: comparable to those of SM102

## CCCCCCCCCCCOC(=O)CCCCCN(CCCCCCCC(=O)OC(CCCCCCCC)CCCCCCCC)C1CCCC(O)C1 (stereo not drawn) [Compound 7]
[1]; [8]
  Fluorescence intensity (expression intensity of Fluc mRNA): 3.7E + 07
[1]; [9]
  Fluorescence intensity (expression intensity of Fluc mRNA): 2.9E + 08
[1]; [10]
  Fluorescence intensity (expression intensity of Fluc mRNA): 2.9E + 07
[2]
  IgG antibody titers: stronger immune response
[5]; 25° C., week 4 versus week 0
  particle size change after four weeks of storage: did not increase significantly
[5]; preparation day (week 0)
  particle size: about 100 nm
[5]; week 0 (day of preparation)
  Z-Average: 95 nm·days
[5]; week 1, storage at 25° C.
  PDI: 0.05
  Z-Average: 105 nm·days
[5]; week 2, storage at 25° C.
  PDI: 0.06
  Z-Average: 115 nm·days
[5]; week 4, storage at 25° C.
  Z-Average: 120 nm·days
[6]; 25° C., week 4 versus week 0
  Fluc expression change after four weeks: did not decrease significantly
[6]; week 0, subcutaneous administration
  Fluc Expression intensities: 2.9E+08
[6]; week 4, storage at 25° C., subcutaneous administration
  Fluc Expression intensities: 2.6E+08
[7]
  Fluorescence intensity (expression intensity of Fluc mRNA): 3.7E + 07
